The results in this text go back to patent publication US9828339B2, “Biphenyl derivatives and methods for preparing same” (DONG-A ST CO., LTD, priority 2013, dated 2017).

Data set [1] deals with T1, human muscarinic M3 receptor (Homo sapiens (Human), UniProt P20309). Description: Antagonism assay on human muscarinic M3 receptor (carbachol-induced intracellular calcium, FLIPR Calcium 5, transfected Cos-7 cells). It is filed as cell-based. As to conditions: functional inhibitory constant; carbachol-induced intracellular calcium in Cos-7 cells transfected with human M3 receptor. The method in brief:
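Ki values converted by Cheng-Prusoff from IC50 against carbachol-evoked calcium rise, measured with FLIPR Calcium 5 in human M3-transfected Cos-7 cells. Compounds added 3 min before carbachol; signal scaled 0% before, 100% after agonist.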
For orientation: A change in cytosolic calcium serves as a functional read-out for many receptors and channels.

Data set [2] deals with T1, human muscarinic M3 receptor. Briefly: Binding assay on human muscarinic M3 receptor ([3H]-methyl scopolamine displacement). As to conditions: membranes overexpressing human M3 receptor, Ki from IC50 by Cheng-Prusoff, read-out: Binding Affinity to M3 Receptor, Ki. The method in brief:
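Displacement of [3H]-methyl scopolamine from membranes overexpressing human M3, in Tris-HCl, 25 °C, 120 min; filter-bound radioactivity counted. Nonspecific binding with 5 μM atropine; Ki from IC50 via Cheng-Prusoff.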

The test system of data set [3] is Sprague-Dawley (SD) rats. Briefly: Acute toxicity test for oral administration on rats. It is filed as in vivo, rat. As to conditions: observed for 4 days. On the procedure:
[Experimental Example 4] Acute Toxicity Test for Oral Administration on Rats
In order to confirm acute toxicity of the compounds of the present invention, following experiment was conducted. A low-dose group, a medi-dose group and a high-dose group, wherein the compounds of Examples were administered 100 mg/kg, 300 mg/kg and 1000 mg/kg respectively, were prepared. Methyl cellulose solution (0.5%) was prepared and orally administered to 3 rats of each group (i.e. both sexes of 6-week old Sprague-Dawley (SD) rats; male rats in 142-143 g; female rats in 126.3-127.3 g) in a volume of 10 mL/kg. Mortality, clinical signs and weight and the like were measured for 4 days, and discovered approximate lethal dose (ALD) therefrom were explained in Table 30 below.

Data set [4] has as its system rhythmic bladder contractions. Briefly: Rhythmic bladder contractions in rats (in vivo). Also noted: species or system rat. As to conditions: 0.3 mpk, intravenous, female Sprague-Dawley rats; amplitude reduction of bladder contractions. The method in brief:
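Halothane-anaesthetised female Sprague-Dawley rats had the bladder catheterised via the urethra, emptied, then slowly filled with 37 °C saline until stable rhythmic contractions, with pressure recorded by transducer. Compounds were given intravenously via the tail vein. Inhibition was measured as reduction in contraction amplitude.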

A word on the Ki: it is the equilibrium dissociation constant of an inhibitor or competing ligand from its target.

T1 sequence (P20309 whole entry): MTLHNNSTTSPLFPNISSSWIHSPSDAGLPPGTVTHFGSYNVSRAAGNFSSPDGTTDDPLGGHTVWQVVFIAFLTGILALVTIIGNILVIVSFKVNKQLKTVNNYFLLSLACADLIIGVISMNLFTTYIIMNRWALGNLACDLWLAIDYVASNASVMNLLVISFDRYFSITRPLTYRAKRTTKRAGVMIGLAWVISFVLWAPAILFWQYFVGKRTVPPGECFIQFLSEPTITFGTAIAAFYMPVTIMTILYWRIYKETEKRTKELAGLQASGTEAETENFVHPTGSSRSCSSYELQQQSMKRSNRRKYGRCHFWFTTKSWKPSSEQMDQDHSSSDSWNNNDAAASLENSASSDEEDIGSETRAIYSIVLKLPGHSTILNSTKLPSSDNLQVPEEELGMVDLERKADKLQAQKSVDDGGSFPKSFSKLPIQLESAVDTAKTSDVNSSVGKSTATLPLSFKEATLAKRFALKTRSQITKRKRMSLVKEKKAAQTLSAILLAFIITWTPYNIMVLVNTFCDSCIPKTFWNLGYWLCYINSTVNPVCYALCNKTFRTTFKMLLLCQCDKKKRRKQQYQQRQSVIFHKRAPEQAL

For `CN1CC[C@@H](COC(=O)Nc2ccccc2-c2ccc(F)c(Cl)c2)C1` [Example 136, (R)-(1-methylpyrrolidin-3-yl)-methyl (3′-chloro-4′-fluoro-[1,1′-biphenyl]-2-yl)carbamate], the results for the Ki in data set [1] and in data set [2] were 0.25 nM and 1.59 nM, respectively. In addition, in data set [3], the “Approximate Lethal Dose (ALD)” value is on record as greater than 1000 mg/kg. Moreover, the “Inhibition of Rhythmic bladder contraction in rats” value (“Inhibition” below) in data set [4] was found to be 33.2 ± 4.0%.

Turning to `CN1CC[C@@H](COC(=O)Nc2ccc(F)cc2-c2ccc(F)c(Cl)c2)C1` [Example 143, (R)-(1-methylpyrrolidin-3-yl)methyl(3′-chloro-4′,5-difluoro-[1,1′-biphenyl]-2-yl)carbamate], the Ki worked out at 0.68 nM in data set [1] and 1.12 nM in data set [2]. Also, the “Approximate Lethal Dose (ALD)” value in data set [3] is on record as greater than 1000 mg/kg. For the same compound, the “Inhibition” value in data set [4] came to 24.3 ± 5.5%.

Turning to `CCN1CC[C@@H](COC(=O)Nc2ccccc2-c2ccc(F)c(Cl)c2)C1` [Example 150, (R)-(1-ethylpyrrolidin-3-yl)methyl (3′-chloro-4′-fluoro-[1,1′-biphenyl]-2-yl)carbamate], the Ki in data set [1] was 1.34 nM; in data set [2], 5.6 nM. Also, the “Approximate Lethal Dose (ALD)” value in data set [3] is reported as greater than 1000 mg/kg. In data set [4], the “Inhibition” value worked out at 25.1 ± 2.5%.

For the compound `Cc1cccc(-c2ccccc2NC(=O)OC[C@@H]2CCCN2C)c1` [Example 199, (S)-(1-methylpyrrolidin-2-yl)methyl(3′-methyl-[1,1′-biphenyl]-2-yl)carbamate], the inhibition constant (Ki) in data set [1] amounted to 0.26 nM; in data set [2], 0.8 nM. Further, the “Approximate Lethal Dose (ALD)” value in data set [3] was greater than 1000 mg/kg. Moreover, the “Inhibition” value in data set [4] came out at 27.8 ± 4.5%.
